This note sets out measurements from US11945798B2, “Substituted aminopyridine compounds as EGFR inhibitors” (YUHAN CORPORATION, priority 2021, dated 2024).

Read-outs that look alike come from different tables or passages of the source. Some results are limits rather than exact numbers.

One experiment addresses EGFR del19/C797S (Homo sapiens, UniProt P00533, C797S/DEL746-750). As to the kind of experiment: Biochemical EGFR kinase assay (Lance Ultra TR-FRET), del19/C797S. A digest of the protocol:
(§1)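 Kinase activity is measured by TR-FRET phosphopeptide detection. Compounds span 0.003 μM to 10 μM; the 1 h reaction at room temperature is quenched with EDTA, then labelled antibody (2 nM) is incubated 60 min before reading.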
For orientation: Time-resolved FRET reads energy transfer from a long-lived donor to a nearby acceptor.

In a further experiment the target is EGFR del19/T790M/C797S (Homo sapiens, UniProt P00533, C797S/DEL746-750/T790M). As to the kind of experiment: Biochemical EGFR kinase assay (Lance Ultra TR-FRET), del19/T790M/C797S. A digest of the protocol: as §1
EGFR del19/T790M/C797S, sequence (P00533 with tags, fused parts or gaps DEL746-750/T790M/C797S): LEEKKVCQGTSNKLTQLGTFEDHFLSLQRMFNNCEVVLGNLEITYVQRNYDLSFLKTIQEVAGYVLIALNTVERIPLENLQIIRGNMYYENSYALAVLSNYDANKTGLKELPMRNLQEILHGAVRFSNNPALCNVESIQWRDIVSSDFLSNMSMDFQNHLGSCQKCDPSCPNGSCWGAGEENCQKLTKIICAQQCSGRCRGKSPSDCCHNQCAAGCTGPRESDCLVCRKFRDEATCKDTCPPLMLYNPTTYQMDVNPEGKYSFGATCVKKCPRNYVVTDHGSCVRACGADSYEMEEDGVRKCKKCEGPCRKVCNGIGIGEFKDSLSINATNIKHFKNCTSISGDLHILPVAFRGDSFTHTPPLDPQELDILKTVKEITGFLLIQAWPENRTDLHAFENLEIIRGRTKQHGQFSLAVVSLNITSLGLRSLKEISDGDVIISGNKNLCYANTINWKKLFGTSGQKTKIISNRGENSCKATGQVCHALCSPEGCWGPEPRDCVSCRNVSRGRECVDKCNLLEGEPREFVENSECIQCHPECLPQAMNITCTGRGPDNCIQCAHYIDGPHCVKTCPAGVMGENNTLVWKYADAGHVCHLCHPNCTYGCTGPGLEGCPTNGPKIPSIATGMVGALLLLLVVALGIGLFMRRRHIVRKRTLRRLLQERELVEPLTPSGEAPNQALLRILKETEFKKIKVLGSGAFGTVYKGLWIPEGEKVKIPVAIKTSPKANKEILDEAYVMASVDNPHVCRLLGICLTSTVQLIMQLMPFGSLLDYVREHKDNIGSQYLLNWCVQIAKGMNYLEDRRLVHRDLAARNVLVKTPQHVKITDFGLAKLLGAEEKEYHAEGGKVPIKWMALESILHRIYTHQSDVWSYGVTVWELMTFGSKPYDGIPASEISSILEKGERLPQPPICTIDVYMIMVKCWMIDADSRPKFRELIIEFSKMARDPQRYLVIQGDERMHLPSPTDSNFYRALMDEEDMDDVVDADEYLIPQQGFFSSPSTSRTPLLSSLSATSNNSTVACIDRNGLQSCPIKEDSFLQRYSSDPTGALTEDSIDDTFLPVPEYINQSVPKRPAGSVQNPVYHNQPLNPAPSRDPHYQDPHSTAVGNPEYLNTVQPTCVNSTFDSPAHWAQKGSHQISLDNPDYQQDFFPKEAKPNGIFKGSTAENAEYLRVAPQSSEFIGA
A further experiment deals with EGFR L858R/T790M/C797S (Homo sapiens, UniProt P00533, C797S/L858R/T790M). As to the kind of experiment: Biochemical EGFR kinase assay (Lance Ultra TR-FRET), L858R/T790M/C797S. The gist of the method: as §1
The target in another experiment is EGFR L858R/C797S (Homo sapiens, UniProt P00533, C797S/L858R). As to the kind of experiment: Biochemical EGFR kinase assay (Lance Ultra TR-FRET), L858R/C797S. A digest of the protocol: as §1
EGFR L858R/C797S, sequence (P00533 25-1210 C797S/L858R): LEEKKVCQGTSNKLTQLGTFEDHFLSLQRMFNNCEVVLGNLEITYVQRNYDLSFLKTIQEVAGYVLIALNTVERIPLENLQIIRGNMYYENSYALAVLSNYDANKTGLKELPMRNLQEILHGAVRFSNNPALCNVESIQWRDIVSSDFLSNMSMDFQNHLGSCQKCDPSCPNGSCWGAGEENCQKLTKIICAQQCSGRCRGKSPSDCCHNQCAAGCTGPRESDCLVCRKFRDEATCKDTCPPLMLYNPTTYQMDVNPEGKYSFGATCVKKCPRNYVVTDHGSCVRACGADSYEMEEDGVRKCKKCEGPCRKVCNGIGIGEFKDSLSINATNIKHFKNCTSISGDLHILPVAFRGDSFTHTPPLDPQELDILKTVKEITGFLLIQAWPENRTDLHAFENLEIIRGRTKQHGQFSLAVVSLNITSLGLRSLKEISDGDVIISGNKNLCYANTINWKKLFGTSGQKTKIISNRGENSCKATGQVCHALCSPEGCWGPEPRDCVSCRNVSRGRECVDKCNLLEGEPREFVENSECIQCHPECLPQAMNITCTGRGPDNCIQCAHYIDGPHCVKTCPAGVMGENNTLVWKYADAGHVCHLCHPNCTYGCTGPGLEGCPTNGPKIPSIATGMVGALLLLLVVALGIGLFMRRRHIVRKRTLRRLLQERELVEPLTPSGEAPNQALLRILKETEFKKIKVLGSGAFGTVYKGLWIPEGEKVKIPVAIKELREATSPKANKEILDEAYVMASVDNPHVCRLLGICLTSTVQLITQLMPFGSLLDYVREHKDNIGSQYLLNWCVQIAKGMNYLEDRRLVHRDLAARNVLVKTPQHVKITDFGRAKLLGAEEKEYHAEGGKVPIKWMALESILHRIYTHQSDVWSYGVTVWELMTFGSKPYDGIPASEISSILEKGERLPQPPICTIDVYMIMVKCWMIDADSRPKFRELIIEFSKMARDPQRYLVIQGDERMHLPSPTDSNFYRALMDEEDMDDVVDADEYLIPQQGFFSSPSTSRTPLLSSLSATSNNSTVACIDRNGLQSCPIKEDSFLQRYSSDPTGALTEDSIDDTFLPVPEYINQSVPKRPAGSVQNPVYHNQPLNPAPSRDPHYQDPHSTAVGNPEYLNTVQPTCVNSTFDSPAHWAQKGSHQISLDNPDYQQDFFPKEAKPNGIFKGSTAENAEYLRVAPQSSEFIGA
The target of another experiment is EGFR wildtype (WT) (Homo sapiens, UniProt P00533). As to the kind of experiment: Biochemical EGFR kinase assay (Lance Ultra TR-FRET), wildtype. A digest of the protocol:
as §1

[1] abbreviates: Km ATP, read-out: IC50 del19/C797S (nM) Km ATP.
Setting [2] is: Km ATP, read-out: IC50 del19/T790M/C797S (nM) Km ATP.
Where [3] appears, read: Km ATP, read-out: IC50 L858R/T790M/C797S (nM) Km ATP.
[4] abbreviates: Km ATP, read-out: IC50 L858R/C797S (nM) Km ATP.
Setting [5] is: Km ATP, read-out: IC50 WT (nM) Km ATP.
Setting [6] is: IC50 del19/C797S (nM) 100 μM ATP, 100 μM ATP.
Where [7] appears, read: IC50 del19/T790M/C797S (nM) 100 μM ATP, 100 μM ATP.
Where [8] appears, read: IC50 L858R/T790M/C797S (nM) 100 μM ATP, 100 μM ATP.
[9] abbreviates: IC50 L858R/C797S (nM) 100 μM ATP, 100 μM ATP.
[10] abbreviates: IC50 WT (nM) 100 μM ATP, 100 μM ATP.

EGFR del19/C797S, sequence (P00533 with tags, fused parts or gaps DEL746-750/C797S): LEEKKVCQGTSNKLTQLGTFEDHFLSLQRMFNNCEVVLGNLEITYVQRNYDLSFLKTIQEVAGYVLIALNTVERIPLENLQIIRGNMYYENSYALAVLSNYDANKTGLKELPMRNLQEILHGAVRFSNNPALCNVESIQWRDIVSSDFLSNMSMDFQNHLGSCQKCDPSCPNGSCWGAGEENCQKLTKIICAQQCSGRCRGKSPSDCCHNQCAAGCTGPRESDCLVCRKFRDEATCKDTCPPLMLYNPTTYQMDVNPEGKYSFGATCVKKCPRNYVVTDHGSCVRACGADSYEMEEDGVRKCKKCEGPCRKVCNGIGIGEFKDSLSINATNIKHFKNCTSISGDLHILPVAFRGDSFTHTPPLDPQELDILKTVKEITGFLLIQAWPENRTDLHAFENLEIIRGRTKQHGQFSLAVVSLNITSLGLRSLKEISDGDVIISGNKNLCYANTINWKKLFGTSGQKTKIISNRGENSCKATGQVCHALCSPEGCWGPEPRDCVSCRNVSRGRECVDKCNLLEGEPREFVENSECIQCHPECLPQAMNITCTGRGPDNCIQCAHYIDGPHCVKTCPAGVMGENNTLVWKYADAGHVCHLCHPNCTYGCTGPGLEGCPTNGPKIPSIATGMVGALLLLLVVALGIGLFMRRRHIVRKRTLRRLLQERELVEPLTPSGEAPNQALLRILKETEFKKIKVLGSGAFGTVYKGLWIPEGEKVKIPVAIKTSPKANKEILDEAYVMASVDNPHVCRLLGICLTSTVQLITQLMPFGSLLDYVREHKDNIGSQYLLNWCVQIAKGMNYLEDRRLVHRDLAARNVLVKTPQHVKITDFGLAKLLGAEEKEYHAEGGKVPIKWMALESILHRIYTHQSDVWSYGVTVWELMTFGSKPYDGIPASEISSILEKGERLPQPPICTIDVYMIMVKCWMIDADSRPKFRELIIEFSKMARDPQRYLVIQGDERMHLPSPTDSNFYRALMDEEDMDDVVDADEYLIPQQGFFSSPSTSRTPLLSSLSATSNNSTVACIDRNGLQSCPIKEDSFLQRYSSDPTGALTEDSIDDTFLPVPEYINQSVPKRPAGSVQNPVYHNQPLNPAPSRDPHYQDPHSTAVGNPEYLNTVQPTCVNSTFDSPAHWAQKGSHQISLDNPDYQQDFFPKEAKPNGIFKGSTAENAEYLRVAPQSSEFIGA
EGFR wildtype (WT), sequence (P00533 25-1210): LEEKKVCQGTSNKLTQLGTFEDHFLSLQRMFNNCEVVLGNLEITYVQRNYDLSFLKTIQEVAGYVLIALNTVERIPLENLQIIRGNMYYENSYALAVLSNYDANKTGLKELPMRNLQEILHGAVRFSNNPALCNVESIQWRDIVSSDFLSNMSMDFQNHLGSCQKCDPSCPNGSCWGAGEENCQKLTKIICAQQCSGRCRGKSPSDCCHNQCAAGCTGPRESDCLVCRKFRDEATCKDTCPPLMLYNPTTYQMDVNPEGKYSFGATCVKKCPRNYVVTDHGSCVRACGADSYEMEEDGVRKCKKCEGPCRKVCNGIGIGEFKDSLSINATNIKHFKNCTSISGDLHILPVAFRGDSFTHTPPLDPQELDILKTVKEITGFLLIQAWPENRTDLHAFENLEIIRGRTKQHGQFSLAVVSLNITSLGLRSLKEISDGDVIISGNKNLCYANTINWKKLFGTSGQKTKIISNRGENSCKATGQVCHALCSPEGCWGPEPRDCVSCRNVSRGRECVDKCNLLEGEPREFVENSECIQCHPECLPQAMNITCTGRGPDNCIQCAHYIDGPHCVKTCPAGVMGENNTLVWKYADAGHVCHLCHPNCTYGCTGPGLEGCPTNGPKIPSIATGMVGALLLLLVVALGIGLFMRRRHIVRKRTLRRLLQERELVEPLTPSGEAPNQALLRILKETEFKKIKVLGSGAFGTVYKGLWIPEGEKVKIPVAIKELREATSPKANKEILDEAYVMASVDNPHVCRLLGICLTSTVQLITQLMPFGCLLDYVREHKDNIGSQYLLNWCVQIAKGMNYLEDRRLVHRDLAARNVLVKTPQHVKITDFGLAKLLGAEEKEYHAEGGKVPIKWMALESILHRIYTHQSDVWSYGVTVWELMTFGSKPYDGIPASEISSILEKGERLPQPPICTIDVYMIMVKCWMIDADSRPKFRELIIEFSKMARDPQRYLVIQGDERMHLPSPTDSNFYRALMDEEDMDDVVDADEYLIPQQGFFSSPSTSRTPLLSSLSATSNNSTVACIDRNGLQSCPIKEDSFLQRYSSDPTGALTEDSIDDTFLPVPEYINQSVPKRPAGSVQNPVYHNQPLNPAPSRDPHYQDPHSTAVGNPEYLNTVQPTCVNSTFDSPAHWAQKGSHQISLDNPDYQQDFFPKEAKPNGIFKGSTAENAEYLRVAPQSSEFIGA

With `O=C(c1cnc(Nc2ccnc(-c3cnn(S(=O)(=O)C4CC4)c3)n2)cc1NC[C@H]1CC[C@H](CNC2CCCC2)CC1)C1CC1` [Example 70, (4-((((1r,4r)-4-((Cyclopentylamino)methyl)cyclohexyl)methyl)amino)-6-((2-(1-(cyclopropylsulfonyl)-1H-pyrazol-4-yl)pyrimidin-4-yl)amino)pyridin-3-yl)(cyclopropyl)methanone], the IC50 on EGFR del19/C797S (setting [1]) turned out to be 2.7 nM; at EGFR del19/T790M/C797S (setting [2]), 0.3 nM; at EGFR L858R/T790M/C797S (setting [3]) it was 0.4 nM; on EGFR L858R/C797S (setting [4]) it was 14.4 nM; on EGFR wildtype (WT) (setting [5]), 24.2 nM.

Turning to `CC(C)Nc1cc(Nc2ccnc(-c3cnn(S(=O)(=O)C4CC4)c3)n2)ncc1C(=O)NCCF` [Example 74, 6-((2-(1-(Cyclopropylsulfonyl)-1H-pyrazol-4-yl)pyrimidin-4-yl)amino)-N-(2-fluoroethyl)-4-(isopropylamino)nicotinamide], the IC50 is 182 nM at EGFR del19/C797S (setting [6]); 94.6 nM on EGFR del19/C797S (setting [1]); 4.2 nM against EGFR del19/T790M/C797S (setting [7]); 6.3 nM at EGFR del19/T790M/C797S (setting [2]); 5.7 nM against EGFR L858R/T790M/C797S (setting [8]); 430 nM on EGFR L858R/C797S (setting [9]). Besides, the IC50 against EGFR wildtype (WT) (setting [10]) is more than 10000 nM; at EGFR wildtype (WT) (setting [5]), 393 nM.

As to `CC(C)Nc1cc(Nc2ccnc(-c3cnn(S(=O)(=O)C4CC4)c3)n2)ncc1C(=O)C1CC1` [Example 1, Cyclopropyl(6-((2-(1-(cyclopropylsulfonyl)-1H-pyrazol-4-yl)pyrimidin-4-yl)amino)-4-(isopropylamino)pyridin-3-yl)methanone], the IC50 was 4.5 nM on EGFR del19/C797S (setting [1]); 3.8 nM at EGFR del19/T790M/C797S (setting [2]); 1.1 nM on EGFR L858R/T790M/C797S (setting [3]); 84.3 nM on EGFR L858R/C797S (setting [4]); 566 nM at EGFR wildtype (WT) (setting [5]).

For `CC(=O)c1cnc(Nc2ccnc(-c3cnn(S(=O)(=O)C4CC4)c3)n2)cc1NC1CCC(CO)C1` (stereo not shown) [Example 47, 1-(6-((2-(1-Cyclopropylsulfonylpyrazol-4-yl)pyrimidin-4-yl)amino)-4-((3-(hydroxymethyl)cyclopentyl)amino)-3-pyridyl)ethanone], the IC50 at EGFR del19/C797S (setting [1]) was 10.5 nM; on EGFR del19/T790M/C797S (setting [2]), 0.1 nM; at EGFR L858R/T790M/C797S (setting [3]), 0.6 nM; on EGFR L858R/C797S (setting [4]) it was 51.3 nM; at EGFR wildtype (WT) (setting [5]) it was 145 nM.

Consider `O=C(N[C@H]1CC[C@H](O)CC1)c1cnc(Nc2ccnc(-c3cnn(S(=O)(=O)C4CC4)c3)n2)cc1N[C@H]1CC[C@@H](NCCF)CC1` [Example 80, 6-((2-(1-(Cyclopropylsulfonyl)-1H-pyrazol-4-yl)pyrimidin-4-yl)amino)-4-(((1s,4s)-4-((2-fluoroethyl)amino)cyclohexyl)amino)-N-((1r,4r)-4-hydroxycyclohexyl)nicotinamide], for which the IC50 at EGFR del19/C797S (setting [6]) was 72.8 nM; at EGFR del19/T790M/C797S (setting [7]), 0.8 nM; at EGFR L858R/T790M/C797S (setting [8]), 2.4 nM; at EGFR L858R/C797S (setting [9]), 170 nM; against EGFR wildtype (WT) (setting [10]) it was more than 10000 nM.

On to `O=C(c1cnc(Nc2ccnc(-c3cnn(S(=O)(=O)C4CC4)c3)n2)cc1NC1CCCN(CCF)C1)C1CC1` (stereo not shown) [Example 39, Cyclopropyl(6-((2-(1-(cyclopropylsulfonyl)-1H-pyrazol-4-yl)pyrimidin-4-yl)amino)-4-((1-(2-fluoroethyl)piperidin-3-yl)amino)pyridin-3-yl)methanone], for which the IC50 against EGFR del19/C797S (setting [6]) came to 38.8 nM; at EGFR del19/C797S (setting [1]), 38.4 nM; on EGFR del19/T790M/C797S (setting [7]) it was 3.8 nM; on EGFR del19/T790M/C797S (setting [2]), 2.9 nM; on EGFR L858R/T790M/C797S (setting [8]), 5.2 nM; at EGFR L858R/T790M/C797S (setting [3]) it was 1.9 nM. In addition, the IC50 at EGFR L858R/C797S (setting [9]) was 451 nM; on EGFR L858R/C797S (setting [4]), 19 nM; against EGFR wildtype (WT) (setting [10]), more than 10000 nM; at EGFR wildtype (WT) (setting [5]) it was 470 nM.

For the compound `CC(C)NC[C@H]1CC[C@H](CNc2cc(Nc3ccnc(-c4cnn(S(=O)(=O)C5CC5)c4)n3)ncc2C(=O)C2CC2)CC1` [Example 69, Cyclopropyl(6-((2-(1-(cyclopropylsulfonyl)-1H-pyrazol-4-yl)pyrimidin-4-yl)amino)-4-((((1r,4r)-4-((isopropylamino)methyl)cyclohexyl)methyl)amino)pyridin-3-yl)methanone], the IC50 at EGFR del19/C797S (setting [1]) turned out to be 0.8 nM; on EGFR del19/T790M/C797S (setting [2]), 0.1 nM; at EGFR L858R/T790M/C797S (setting [3]) it was 0.1 nM; on EGFR L858R/C797S (setting [4]), 9.2 nM; on EGFR wildtype (WT) (setting [5]), 7.5 nM.
